A short description of this series: Solubility assessment (visual) of selinexor in solvents and solvent mixtures. It counts as physicochemical. As to conditions: any of the MTBE:heptane mixtures investigated.

Take `O=C(/C=C\n1cnc(-c2cc(C(F)(F)F)cc(C(F)(F)F)c2)n1)NNc1cnccn1` [Selinexor, (Z)-3-(3-(3,5-bis(trifluoromethyl)phenyl)-1H-1,2,4-triazol-1-yl)-N′-(pyrazin-2-yl)acrylohydrazide]: the Solubility is above 100 volumes.

The values above are taken from US11746102B2, “Polymorphs of selinexor” (Karyopharm Therapeutics Inc., priority 2014, dated 2023).
